According to US9682985B2, “(Indazol-4-yl) hexahydropyrrolopyrrolones and methods of use” (AbbVie Inc., priority 2015, dated 2017):

Legend:
[1] = tested on: MIA-induced osteoarthritic pain in rats; assay: Osteoarthritic (OA) pain induced by sodium monoiodoacetate (MIA), hind limb grip force; type: in vivo; details: rat MIA-OA, 20 days after MIA
Protocol: Osteoarthritic (OA) Pain Induced by Sodium Monoiodoacetate (MIA)
Pain behavior was assessed by measurement of hind limb grip force (GF) in adult osteoarthritic rats. Male Sprague Dawley rats, obtained from Charles River Laboratories, (Wilmington, Mass.), weighing 150-175 g, were injected in the unilateral knee join with a single intra-articular injection of sodium monoiodoacetate (MIA, 3 mg/rat). All rats were tested at 20 days following MIA injection. A behavioral measure of activity-induced pain was carried out. Measurements of the peak hind limb grip force were conducted by recording the maximum compressive force (CFmax), in grams of force, exerted on a hind limb strain gauge setup, in a commercially available grip force measurement system (Columbus Instruments, Columbus, Ohio).
During testing, each rat was gently restrained by grasping it around its rib cage and then allowed to grasp the wire mesh frame attached to the strain gauge. The experimenter then moved the animal in a rostral-to-caudal direction until the grip was broken. Each rat was sequentially tested twice at an approximately 2-3 minute interval to obtain a raw mean grip force (CFmax). This raw mean grip force data was in turn converted to a maximum hindlimb cumulative compressive force (CFmax), as the grams of force/kg of body weight, for each animal.
For evaluating the compound effects, the hind limb grip force was conducted 20 days following the intra-articular injection of MIA. A group of age-matched naïve (not injected with MIA) animals was added as a comparator to the drug-dosed groups. The vehicle control response for each group of MIA-treated animals was defined as the 0% response (0% effect), whereas the naïve control group was defined as the normal response and as 100% effect. The % effect for each dose group was expressed as % return of response to normalcy, compared to the naïve group. A percent maximal possible effect (% MPE) of testing compound was calculated according to the formula: (Treatment CFmax Vehicle CFmax)/Vehicle CFmax]×100). Higher % effect numbers indicate increased relief from the pain in the model, with 100% indicating a return to the level of response seen in normal (non-osteoarthritic) animals. All experiments evaluating drug effects in this model were conducted in a randomized blinded fashion.
The animals were housed in Association for Assessment and Accreditation of Laboratory Animal Care (AAALAC) approved facilities at AbbVie Inc. in a temperature-regulated environment under a controlled 12-hour light-dark cycle, with lights on at 6:00 a.m. Food and water were available ad libitum at all times except during testing. All testing was done following procedures outlined in protocols approved by AbbVie Inc.'s Institutional Animal Care and Use Committee.

[2] = tested on: SNL-induced neuropathic pain in rats; assay: Rat spinal nerve ligation (SNL) model of neuropathic pain, paw withdrawal threshold; type: in vivo; details: SNL dose 100 mg/kg
Source text: Rat Spinal Nerve Ligation (SNL) Model of Neuropathic Pain.
A model of spinal nerve ligation-induced (SNL model) neuropathic pain as originally described by Kim and Chung (Kim, S. H. and J. M. Chung, 1992, Pain 50, 355) was used to test a compound of the present application. The male Sprague Dawley rats (Charles River Laboratories, Wilmington, Mass.), weighing 150-175 g at the time of surgery, were placed under isoflurane anesthesia and a 1.5 cm incision was made dorsal to the lumbosacral plexus. The paraspinal muscles (left side) were separated from the spinous processes, the left L5 and L6 spinal nerves isolated, and tightly ligated with 5-0 silk suture distal to the dorsal root ganglion. Care was taken to avoid ligating the L4 spinal nerve. Following spinal nerve ligation, a minimum of 7 days of recovery and no more than 3 weeks was allowed prior to the behavioral testing (mechanical sensitivity). Only rats with threshold scores ≦4.5 g were considered allodynic and utilized in pharmacological experiments.
Mechanical sensitivity was measured using calibrated von Frey filaments (Stoelting, Wood Dale, Ill.). Paw withdrawal threshold (PWT) was determined by using the Dixon's up-down method (Dixon, W. J., 1980, Ann. Rev. Pharmacol. Toxicol., 20, 441). Rats were placed into inverted individual plastic containers (20×12.5×20 cm) on top of a suspended wire mesh with a 1 cm^2 grid to provide access to the ventral side of the hind paws, and acclimated to the test chambers for 20 minutes. The von Frey filaments were presented perpendicularly to the plantar surface of the selected hind paw, and then held in this position for approximately 8 seconds with enough force to cause a slight bend in the filament. […] A 50% withdrawal threshold was determined using an up-down procedure (Dixon, 1980). A percent maximal possible effect (% MPE) of testing compound was calculated according to the formula: (Log [compound−treated threshold]−Log [vehicle−treated threshold])/(Log [maximum threshold]−Log [vehicle-treated threshold])×100%, where the maximum threshold was equal to 15 g. […]

recombinant human Nav1.7 = target: T1, recombinant human Nav1.7 (Homo sapiens, UniProt Q15858); assay: FRET-based membrane potential assay, Nav1.7; type: cell-based; details: HEK293 cells expressing recombinant human Nav1.7; veratridine + scorpion venom depolarization
T1 construct: expressed in transfected cells; host or cells: HEK293

hERG channel (Kv11.1) = target: T2, hERG channel (Kv11.1) (Homo sapiens, UniProt Q12809); assay: hERG QPatch screening protocol (hERG current block); type: cell-based; details: HEK-293 cells stably transfected with hERG; tail current; room temperature
T2 construct: W. January (Wisconsin Alumni Research Foundation); host or cells: HEK-293
Protocol: hERG QPatch Screening Protocol
Solutions and Compound Plates:
The bath solution contained (in mM): 140 NaCl, 5 KCl, 1 MgCl2, 2 CaCl2, 5 glucose, 20 HEPES, pH=7.4. The internal solution contained (in mM): 125 K-aspartate, 20 KCl, 10 EGTA, 5 MgATP, 1 MgCl2, 5 HEPES, pH=7.3.
Compound plates were prepared with an acoustic liquid handler (Echo® 550, Labcyte), using 384-well source plates and 96-well destination plates. Compounds were delivered to the destination plates as 300 nL spots in half-log increments (1, 3, 10 and 30 mM), dissolved in dimethyl sulfoxide. Plates were solvated with bath solution (300 μL) to final concentrations (1, 3, 10 and 30 μM; 0.1% dimethyl sulfoxide) and added to the QPatch workstation.
Cells and Cell Preparation:
Human embryonic kidney (HEK-293) cells, stably transfected with the hERG channel, were obtained from Dr. C. W. January (Wisconsin Alumni Research Foundation). Cells were initially maintained at 37° C. (5% CO2 atmosphere) in MEM supplemented media. Cells were cryo-preserved in 10% dimethyl sulfoxide, 90% fetal bovine serum at 10 M cells/mL. For electrophysiological studies, cells were thawed, resuspended in media at 1.0-1.5 M cells/mL and placed on the QPatch workstation.
QPatch Electrophysiology Workstation and Experimental Protocol:
Currents were recorded using QPatch HT (Sophion), an automated planar patch-clamp system. The QPatch uses forty-eight amplifiers and a 48-chamber QPlate positioned directly on top of the headstage. To obtain high resistant seals, cells are added to each chamber and allowed to settle for 10 seconds. Negative pressure is then applied to promote cell delivery to the patch chip openings on the chamber bottom. After formation of GΩ seals, negative pressure ramps are applied to obtain intracellular access. Access resistance was initially optimized by additional pressure ramps to assure the intracellular access was adequate for voltage clamp experiments (targeted access resistance <10 MΩ). Whole-cell compensation and series resistance compensation were used at 60% (both predicted and corrected). Experiments using QPatch were conducted at room temperature.
A single application of each concentration was applied to cells. During a five-minute wash-in period, a four-second depolarizing pulse to +20 mV, followed by a five-second repolarizing pulse to −50 mV was applied once every 15 seconds from a holding potential of −80 mV. Cells were exposed to four ascending concentrations of drug in half-log intervals.
Evaluation of hERG Current Block:
hERG tail current was measured as the difference in amplitude between a […] and the end of a five-second test pulse to −50 mV, preceded by a four-second pulse to +20 mV. The hERG IC50 values for compounds were determined from tail current analysis. The IC50 was calculated with a logistic fitting routine using the following equation: y=[(A1−A2)/(1+(x/IC50))^p]A2, where A1=initial×value, A2=final×value and p=power.

recombinant human Nav1.8 = target: T3, recombinant human Nav1.8 (Homo sapiens, UniProt Q9Y5Y9); assay: FRET-based membrane potential assay, Nav1.8; type: cell-based; details: HEK293 cells expressing recombinant human Nav1.8; veratridine + scorpion venom depolarization
T3 construct: host or cells: HEK293
T3 sequence (Q9Y5Y9 whole entry): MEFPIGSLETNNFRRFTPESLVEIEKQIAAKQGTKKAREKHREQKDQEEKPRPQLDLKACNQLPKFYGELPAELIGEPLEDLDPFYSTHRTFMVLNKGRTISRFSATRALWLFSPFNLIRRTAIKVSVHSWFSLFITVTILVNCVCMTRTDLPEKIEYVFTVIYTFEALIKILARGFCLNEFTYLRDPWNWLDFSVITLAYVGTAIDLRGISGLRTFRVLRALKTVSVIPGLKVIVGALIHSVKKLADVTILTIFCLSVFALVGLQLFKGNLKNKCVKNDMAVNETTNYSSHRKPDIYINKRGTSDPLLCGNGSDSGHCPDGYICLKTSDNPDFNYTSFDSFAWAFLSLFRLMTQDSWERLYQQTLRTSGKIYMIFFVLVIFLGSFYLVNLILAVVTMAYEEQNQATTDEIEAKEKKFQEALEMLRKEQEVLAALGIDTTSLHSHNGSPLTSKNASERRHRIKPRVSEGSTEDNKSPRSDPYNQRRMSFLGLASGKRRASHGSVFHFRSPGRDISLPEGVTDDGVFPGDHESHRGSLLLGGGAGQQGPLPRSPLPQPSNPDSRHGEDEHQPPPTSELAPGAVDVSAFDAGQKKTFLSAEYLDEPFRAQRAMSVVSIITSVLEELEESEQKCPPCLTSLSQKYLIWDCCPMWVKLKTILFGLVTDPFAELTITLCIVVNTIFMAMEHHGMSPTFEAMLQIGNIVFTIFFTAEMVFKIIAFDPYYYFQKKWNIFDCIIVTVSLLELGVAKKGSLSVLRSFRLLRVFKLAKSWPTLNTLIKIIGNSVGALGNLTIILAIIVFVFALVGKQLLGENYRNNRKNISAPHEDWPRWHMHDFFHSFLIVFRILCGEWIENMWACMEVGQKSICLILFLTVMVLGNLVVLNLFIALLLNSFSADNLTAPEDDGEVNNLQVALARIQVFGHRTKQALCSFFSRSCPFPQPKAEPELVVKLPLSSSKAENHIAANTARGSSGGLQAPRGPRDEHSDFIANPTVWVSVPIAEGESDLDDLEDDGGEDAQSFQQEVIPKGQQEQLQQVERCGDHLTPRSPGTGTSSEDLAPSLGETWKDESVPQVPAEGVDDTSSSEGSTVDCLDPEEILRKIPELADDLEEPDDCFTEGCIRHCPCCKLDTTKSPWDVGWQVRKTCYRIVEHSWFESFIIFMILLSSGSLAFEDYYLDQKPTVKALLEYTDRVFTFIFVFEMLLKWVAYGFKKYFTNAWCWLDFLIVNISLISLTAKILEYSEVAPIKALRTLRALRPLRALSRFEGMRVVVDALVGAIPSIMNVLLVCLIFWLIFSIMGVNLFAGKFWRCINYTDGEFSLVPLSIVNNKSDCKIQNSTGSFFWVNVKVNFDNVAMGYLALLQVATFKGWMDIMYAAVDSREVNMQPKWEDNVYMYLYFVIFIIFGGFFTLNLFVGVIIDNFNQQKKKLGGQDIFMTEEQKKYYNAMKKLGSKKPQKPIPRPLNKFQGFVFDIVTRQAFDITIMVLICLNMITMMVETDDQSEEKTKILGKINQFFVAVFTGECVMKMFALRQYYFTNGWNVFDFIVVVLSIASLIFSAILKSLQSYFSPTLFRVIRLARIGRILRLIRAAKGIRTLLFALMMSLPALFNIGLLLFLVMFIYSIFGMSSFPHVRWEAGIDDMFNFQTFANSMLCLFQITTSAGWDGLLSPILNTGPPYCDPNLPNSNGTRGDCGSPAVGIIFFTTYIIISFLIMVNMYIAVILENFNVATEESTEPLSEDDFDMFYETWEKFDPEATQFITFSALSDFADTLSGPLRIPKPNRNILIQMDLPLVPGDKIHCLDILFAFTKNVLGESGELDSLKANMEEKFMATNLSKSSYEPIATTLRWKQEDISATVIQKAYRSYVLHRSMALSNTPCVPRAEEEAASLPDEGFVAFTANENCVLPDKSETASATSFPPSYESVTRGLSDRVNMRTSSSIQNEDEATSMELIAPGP

T1 sequence (Q15858 whole entry): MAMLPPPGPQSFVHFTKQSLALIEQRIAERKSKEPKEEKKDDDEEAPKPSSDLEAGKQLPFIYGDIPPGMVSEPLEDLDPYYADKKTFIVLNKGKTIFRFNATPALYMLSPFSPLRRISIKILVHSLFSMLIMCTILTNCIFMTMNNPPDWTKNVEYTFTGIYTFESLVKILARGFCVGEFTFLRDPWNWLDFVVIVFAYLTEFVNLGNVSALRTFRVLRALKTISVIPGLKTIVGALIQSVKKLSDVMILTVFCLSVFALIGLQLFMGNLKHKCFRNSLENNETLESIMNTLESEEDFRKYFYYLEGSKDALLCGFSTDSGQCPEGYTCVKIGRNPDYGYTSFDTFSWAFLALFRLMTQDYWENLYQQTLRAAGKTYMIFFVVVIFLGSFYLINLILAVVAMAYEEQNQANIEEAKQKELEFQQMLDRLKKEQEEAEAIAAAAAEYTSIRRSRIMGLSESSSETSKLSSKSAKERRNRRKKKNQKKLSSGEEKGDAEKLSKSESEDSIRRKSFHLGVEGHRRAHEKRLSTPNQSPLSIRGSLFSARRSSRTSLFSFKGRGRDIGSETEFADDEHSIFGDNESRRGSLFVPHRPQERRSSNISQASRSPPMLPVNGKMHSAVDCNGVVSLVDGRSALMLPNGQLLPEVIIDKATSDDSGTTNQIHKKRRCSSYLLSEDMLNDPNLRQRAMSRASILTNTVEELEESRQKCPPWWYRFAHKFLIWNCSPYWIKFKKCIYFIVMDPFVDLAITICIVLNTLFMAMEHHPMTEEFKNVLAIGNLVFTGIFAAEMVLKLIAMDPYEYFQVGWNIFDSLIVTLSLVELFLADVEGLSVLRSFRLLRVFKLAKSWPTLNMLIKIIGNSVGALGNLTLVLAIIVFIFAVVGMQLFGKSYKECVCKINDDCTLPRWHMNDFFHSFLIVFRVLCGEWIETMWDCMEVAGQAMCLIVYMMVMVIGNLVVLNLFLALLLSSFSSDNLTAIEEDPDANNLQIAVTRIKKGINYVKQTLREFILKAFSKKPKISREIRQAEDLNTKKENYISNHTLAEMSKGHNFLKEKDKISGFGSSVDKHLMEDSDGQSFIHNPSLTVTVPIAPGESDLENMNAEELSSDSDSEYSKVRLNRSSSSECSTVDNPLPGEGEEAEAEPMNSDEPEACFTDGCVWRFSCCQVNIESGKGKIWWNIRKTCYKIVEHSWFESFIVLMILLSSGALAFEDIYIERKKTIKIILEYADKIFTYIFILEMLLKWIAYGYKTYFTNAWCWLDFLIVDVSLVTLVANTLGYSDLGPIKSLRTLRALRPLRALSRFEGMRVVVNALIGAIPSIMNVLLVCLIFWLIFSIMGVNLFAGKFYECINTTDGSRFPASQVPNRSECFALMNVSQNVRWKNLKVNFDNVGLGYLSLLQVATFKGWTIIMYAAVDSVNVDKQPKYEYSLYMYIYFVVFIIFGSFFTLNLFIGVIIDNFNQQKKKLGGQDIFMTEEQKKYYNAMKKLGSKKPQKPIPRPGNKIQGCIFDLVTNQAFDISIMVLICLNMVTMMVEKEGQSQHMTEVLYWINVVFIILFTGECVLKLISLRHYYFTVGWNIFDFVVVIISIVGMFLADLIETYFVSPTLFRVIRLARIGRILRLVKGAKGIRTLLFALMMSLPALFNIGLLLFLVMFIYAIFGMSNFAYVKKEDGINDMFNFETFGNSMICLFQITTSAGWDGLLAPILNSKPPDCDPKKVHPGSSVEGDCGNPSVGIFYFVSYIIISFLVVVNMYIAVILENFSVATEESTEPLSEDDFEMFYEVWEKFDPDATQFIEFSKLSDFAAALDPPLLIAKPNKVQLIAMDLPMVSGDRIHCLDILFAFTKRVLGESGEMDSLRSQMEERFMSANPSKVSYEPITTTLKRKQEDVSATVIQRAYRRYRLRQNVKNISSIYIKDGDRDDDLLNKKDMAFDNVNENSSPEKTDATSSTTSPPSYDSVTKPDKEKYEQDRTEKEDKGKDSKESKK
T2 sequence (Q12809 whole entry): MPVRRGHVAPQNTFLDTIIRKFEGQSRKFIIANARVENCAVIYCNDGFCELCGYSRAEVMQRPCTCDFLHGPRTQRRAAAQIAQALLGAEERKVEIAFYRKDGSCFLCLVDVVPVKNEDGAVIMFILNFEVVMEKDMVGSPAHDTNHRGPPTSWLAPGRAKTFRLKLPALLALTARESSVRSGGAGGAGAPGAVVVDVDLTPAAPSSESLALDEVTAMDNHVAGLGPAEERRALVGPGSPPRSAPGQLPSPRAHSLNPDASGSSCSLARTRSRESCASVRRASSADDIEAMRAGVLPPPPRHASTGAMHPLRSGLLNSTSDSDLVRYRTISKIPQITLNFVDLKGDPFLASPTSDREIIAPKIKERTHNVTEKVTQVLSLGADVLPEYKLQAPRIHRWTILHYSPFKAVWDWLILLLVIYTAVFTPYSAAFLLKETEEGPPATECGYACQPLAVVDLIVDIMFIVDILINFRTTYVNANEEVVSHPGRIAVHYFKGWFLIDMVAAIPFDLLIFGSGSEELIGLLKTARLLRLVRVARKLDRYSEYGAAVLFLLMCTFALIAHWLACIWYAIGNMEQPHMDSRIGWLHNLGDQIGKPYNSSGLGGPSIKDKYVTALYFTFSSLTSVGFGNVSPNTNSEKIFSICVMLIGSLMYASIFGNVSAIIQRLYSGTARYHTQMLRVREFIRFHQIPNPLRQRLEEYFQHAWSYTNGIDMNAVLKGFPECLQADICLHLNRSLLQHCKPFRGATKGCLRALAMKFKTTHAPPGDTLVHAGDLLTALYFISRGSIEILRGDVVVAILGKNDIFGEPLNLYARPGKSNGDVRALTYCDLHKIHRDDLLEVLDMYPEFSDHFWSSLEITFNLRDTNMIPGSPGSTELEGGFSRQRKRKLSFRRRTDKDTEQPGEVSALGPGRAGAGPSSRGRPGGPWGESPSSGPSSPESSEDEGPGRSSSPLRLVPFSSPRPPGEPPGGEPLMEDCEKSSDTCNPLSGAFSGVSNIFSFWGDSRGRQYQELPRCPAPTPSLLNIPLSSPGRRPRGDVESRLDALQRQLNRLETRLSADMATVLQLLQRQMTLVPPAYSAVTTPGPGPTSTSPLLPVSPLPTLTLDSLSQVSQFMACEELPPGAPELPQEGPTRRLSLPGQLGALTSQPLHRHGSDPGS

## CC(C)(O)CC(=O)N1C[C@H]2CN(c3cccc4c3cnn4-c3ccccc3F)C(=O)[C@H]2C1 [Example 35, (3aS,6aR)-2-[1-(2-fluorophenyl)-1H-indazol-4-yl]-5-(3-hydroxy-3-methylbutanoyl)hexahydropyrrolo[3,4-c]pyrrol-1(2H)-one]
[1]; OA dose 30 mg/kg
  OA MPE: 99%
[2]
  SNL MPE: 40%

## O=C(CC1CCCO1)N1C[C@@H]2CN(c3cccc4c3cnn4-c3ccccc3F)C(=O)[C@H]2C1 (relative stereo) [Example 10, rel-(3aR,6aR)-2-[1-(2-fluorophenyl)-1H-indazol-4-yl]-5-(tetrahydrofuran-2-ylacetyl)hexahydropyrrolo[3,4-c]pyrrol-1(2H)-one]
Recombinant human Nav1.7
  IC50: 2.07 µM
hERG channel (Kv11.1)
  IC50: > 30 µM
[1]; OA dose 10 mg/kg
  OA MPE: 74%
[2]
  SNL MPE: 59%

## C[C@H](O)CC(=O)N1C[C@H]2CN(c3cccc4c3cnn4-c3ccccc3F)C(=O)[C@H]2C1 [Example 34, (3aS,6aR)-2-[1-(2-fluorophenyl)-1H-indazol-4-yl]-5-[(3S)-3-hydroxybutanoyl]hexahydropyrrolo[3,4-c]pyrrol-1(2H)-one]
Recombinant human Nav1.7
  IC50: 9.91 µM
Recombinant human Nav1.8
  IC50: 8.36 µM
hERG channel (Kv11.1)
  IC50: > 30 µM
[1]; OA dose 30 mg/kg
  OA MPE: 85%
[2]
  SNL MPE: 60%
